Results: patent US8802678B2, “Carbonylated (aza) cyclohexanes as dopamine D3 receptor ligands” (Bioprojet, priority 2006, dated 2014)

Question: For CCOCC(=O)N[C@H]1CC[C@H](CCN2CCN(c3ccc(C)c(F)c3)CC2)CC1 [Example 539, 2-Ethoxy-N-(4-{2-[4-(3-fluoro-4-methylphenyl)piperazin-1-yl]ethyl}cyclohexyl)acetamide], which melting point is on record?
Answer: Its melting point is 124 °C.

Question: For N#CCCCC(=O)N[C@H]1CC[C@H](CCN2CCN(c3cc(C(F)(F)F)ccc3F)CC2)CC1 [Example 207, 4-Cyano-N-(4-{2-[4-(2-fluoro-5-trifluoromethylphenyl)piperazin-1-yl]ethyl}cyclohexyl)butanamide], which melting point is on record?
Answer: Its melting point is 138 to 139 °C.

Question: Which melting point does the source give for Cc1cc(F)cc(N2CCN(CC[C@H]3CC[C@H](NC(=O)CC#N)CC3)CC2)c1 [Example 725, 2-Cyano-N-(4-{2-[4-(3-fluoro-5-methylphenyl)piperazin-1-yl]ethyl}cyclohexyl)acetamide] here?
Answer: The melting point was 180 °C.

Question: With N#CCC(=O)N[C@H]1CC[C@H](CCN2CCC(c3cc(C(F)(F)F)cc(C(F)(F)F)c3)CC2)CC1 [Example 200, N-(4-{2-[4-(3,5-Bis-trifluoro-methylphenyl)piperidin-1-yl]ethyl}cyclohexyl)-2-cyanoacetamide] as the compound, how does the melting point read?
Answer: The melting point was 164 °C.

Question: Which melting point does the source give for O=C(N[C@H]1CC[C@H](CCN2CCN(c3ccc(F)c(F)c3F)CC2)CC1)C1=CCCC1 [Example 543] here?
Answer: Its melting point is 213 °C.

Question: For COCCCC(=O)N[C@H]1CC[C@H](CCN2CCN(c3ccccc3F)CC2)CC1 [Example 76, N-(4-{2-[4-(2-Fluorophenyl)-piperazin-1-yl]ethyl}cyclohexyl)-4-methoxybutanamide], which melting point is on record?
Answer: The melting point was 175 °C.

Question: For CC(=O)CN1CCC(CCN2CCN(c3cccc(C)c3C)CC2)CC1.Cl.Cl, which melting point is on record?
Answer: The melting point was 290 °C.

Question: With CC(=O)CN1CCC(CCN2CCN(c3ccc(F)c(Cl)c3F)CC2)CC1 [Example 623, 1-(4-{2-[4-(3-Chloro-2,4-difluorophenyl)piperazin-1-yl]ethyl}piperidin-1-yl)propan-2-one] as the compound, how does the melting point read?
Answer: The melting point was 82 °C.

Question: With CC(=O)CN1CCC(CCN2CC=C(c3cccc(Cl)c3Cl)CC2)CC1.Cl.Cl as the compound, how does the melting point read?
Answer: Its melting point is 296 to 297 °C.

Question: Which melting point does the source give for CCOCC(=O)N[C@H]1CC[C@H](CCN2CCN(c3cccc(C(F)(F)F)c3)CC2)CC1.Cl here?
Answer: The melting point was 184 °C.

Question: Which melting point does the source give for Cc1ccc(Cl)cc1N1CCN(CC[C@H]2CC[C@H](NC(=O)CCC#N)CC2)CC1 [Example 257, N-(4-{2-[4-(5-Chloro-2-methylphenyl)piperazin-1-yl]ethyl}cyclohexyl)-3-cyanopropanamide] here?
Answer: The melting point was 133 to 134 °C.

Question: With CCOCC(=O)N[C@H]1CC[C@H](CCN2CCN(c3ccccc3C#N)CC2)CC1 [Example 73, N-(4-{2-[4-(2-Cyanophenyl)-piperazin-1-yl]ethyl}cyclohexyl)-2-ethoxyacetamide] as the compound, how does the melting point read?
Answer: The melting point was 96 °C.

Question: Which melting point does the source give for O=C(N[C@H]1CC[C@H](CCN2CCN(c3cccc(C(F)(F)F)c3)CC2)CC1)C1=CCCC1 [Example 45, Cyclopent-1-enecarboxylic acid (4-{2-[4-(3-trifluoromethyl-phenyl)piperazin-1-yl]ethyl}cyclohexyl)amide] here?
Answer: Its melting point is 175 °C.

Question: Which melting point does the source give for CCc1ccc(F)c(N2CCN(CC[C@H]3CC[C@H](NC(=O)CC#N)CC3)CC2)c1 [Example 673, 2-Cyano-N-(4-{2-[4-(5-ethyl-2-fluorophenyl)piperazin-1-yl]ethyl}cyclohexyl)acetamide] here?
Answer: Its melting point is 180 °C.

Question: Which melting point does the source give for N#CCC(=O)N[C@H]1CC[C@H](CCN2CCN(c3ccc(Cl)cc3)CC2)CC1 [Example 275, N-(4-{2-[4-(4-Chlorophenyl)piperazin-1-yl]ethyl}cyclohexyl)-2-cyanoacetamide] here?
Answer: Its melting point is 247 °C.

Question: Which melting point does the source give for O=C(N[C@H]1CC[C@H](CCN2CCN(c3cccc(C(F)(F)F)c3F)CC2)CC1)C1=COCCC1 [Example 476] here?
Answer: The melting point was 207 °C.

Question: With N#CCCCC(=O)N[C@H]1CC[C@H](CCN2CC=C(c3cc(C(F)(F)F)ccc3F)CC2)CC1 as the compound, how does the melting point read?
Answer: Its melting point is 153 °C.

Question: For Cl.N#CCC(=O)N[C@H]1CC[C@@H](CCN2CCN(c3ccccc3F)CC2)CC1, which melting point is on record?
Answer: Its melting point is 153 °C.

Question: Which melting point does the source give for CC(=O)CN1CCC(CCN2CCN(c3cccc(C(F)(F)F)c3F)CC2)CC1.Cl.Cl here?
Answer: The melting point was 270 °C.

Question: Which melting point does the source give for CC(=O)CN1CCC(CCN2CCN(c3cccc4ncccc34)CC2)CC1.Cl.Cl here?
Answer: Its melting point is 295 °C.

Question: For CS(=O)(=O)CC(=O)N[C@H]1CC[C@H](CCN2CCN(c3cccc(C(F)(F)F)c3)CC2)CC1 [Example 337, 2-Methanesulfonyl-N-(4-{2-[4-(3-trifluoromethylphenyl)piperazin-1-yl]ethyl}cyclohexyl)acetamide], which melting point is on record?
Answer: The melting point was 158 °C.

Question: Which melting point does the source give for N#CCC(=O)N[C@H]1CC[C@H](CCN2CCN(c3cccc4ccccc34)CC2)CC1 [Example 183, 2-Cyano-N-{4-[2-(4-naphthalen-1-ylpiperazin-1-yl)ethyl]cyclohexyl}acetamide] here?
Answer: Its melting point is 174 °C.

Question: Which melting point does the source give for CCOCC(=O)N[C@H]1CC[C@H](CCN2CCN(c3cc(Cl)ccc3Cl)CC2)CC1 [Example 521, N-(4-{2-[4-(2,5-Dichlorophenyl)-piperazin-1-yl]ethyl}cyclohexyl)-2-ethoxyacetamide] here?
Answer: Its melting point is 128 °C.

Question: With N#CCC(=O)N[C@H]1CC[C@H](CCN2CCN(c3cc(F)c(F)c(F)c3F)CC2)CC1 [Example 708, 2-Cyano-N-(4-{2-[4-(2,3,4,5-tetrafluorophenyl)piperazin-1-yl]ethyl}cyclohexyl)acetamide] as the compound, how does the melting point read?
Answer: The melting point was 214 °C.

Question: With O=C(N[C@H]1CC[C@H](CCN2CCN(c3cccc(C(F)(F)F)c3)CC2)CC1)C1=CCCCC1 [Example 53, Cyclohex-1-enecarboxylic acid (4-{2-[4-(3-trifluoromethylphenyl)-piperazin-1-yl]ethyl}cyclohexyl)-amide] as the compound, how does the melting point read?
Answer: Its melting point is 175 °C.

Question: With N#CCCCC(=O)N[C@H]1CC[C@H](CCN2CCN(c3cccc(C#N)c3)CC2)CC1 [Example 448, 4-Cyano-N-(4-{2-[4-(3-cyanophenyl)piperazin-1-yl]ethyl}cyclohexyl)butanamide] as the compound, how does the melting point read?
Answer: The melting point was 184 °C.

Question: For CCc1cccc(N2CCN(CC[C@H]3CC[C@@H](NC(=O)CC#N)CC3)CC2)c1 [Example 328, 2-Cyano-N-(4-{2-[4-(3-ethylphenyl)piperazin-1-yl]ethyl}cyclohexyl)acetamide], which melting point is on record?
Answer: Its melting point is 101 °C.

Question: With COc1ccc(Cl)cc1N1CCN(CCC2CCN(CC(C)=O)CC2)CC1.Cl.Cl as the compound, how does the melting point read?
Answer: Its melting point is 275 °C.

Question: For COCCCC(=O)N[C@H]1CC[C@H](CCN2CCN(c3cc(F)c(F)c(F)c3)CC2)CC1 [Example 568, 4-Methoxy-N-(4-{2-[4-(3,4,5-trifluorophenyl)piperazin-1-yl]ethyl}cyclohexyl)butanamide], which melting point is on record?
Answer: The melting point was 194 °C.

Question: With CC(=O)CN1CCC(CCN2CCN(c3cccc(C(C)C)c3)CC2)CC1.Cl.Cl as the compound, how does the melting point read?
Answer: The melting point was 252 °C.

Question: Which melting point does the source give for CCOCC(=O)N[C@H]1CC[C@H](CCN2CCN(c3cccc4c3CCCC4)CC2)CC1 [Example 117, 2-Ethoxy-N-(4-{2-[4-(5,6,7,8-tetrahydronaphthalen-1-yl)piperazin-1-yl]ethyl}-cyclohexyl)acetamide] here?
Answer: Its melting point is 91 °C.

Question: For N#CCCCC(=O)N[C@H]1CC[C@H](CCN2CCN(c3cccc(F)c3C#N)CC2)CC1 [Example 522, 4-Cyano-N-(4-{2-[4-(2-cyano-3-fluorophenyl)piperazin-1-yl]ethyl}cyclohexyl)butanamide], which melting point is on record?
Answer: The melting point was 175 °C.

Question: For O=C(CC(F)(F)F)N[C@H]1CC[C@H](CCN2CCN(c3cccc(C(F)(F)F)c3F)CC2)CC1 [Example 256, 3,3,3-Trifluoro-N-(4-{2-[4-(2-fluoro-3-trifluoromethylphenyl)-piperazin-1-yl]ethyl}cyclohexyl)-propanamide], which melting point is on record?
Answer: Its melting point is 198 °C.
